System: SHR/NDmcr-cp rats
Test: In vivo endoplasmic reticula stress alleviation, anti-ORP150 immunostaining of kidney
Parameters: species or system rat
Details: 100 mg/1 kg body weight by diet, 33 weeks aged
Protocol: Endoplasmic reticula stress alleviation effect by TM-2002 was examined using SHR/NDmcr-cp (Disease Model Cooperative Research Association) rats, which have been known their high blood pressure, hyperglycemia, hyperlipemia, obesity and hyperinsulinemia and renal function disorder while aging, and immunostained utilizing anti-ORP150 antibody. The stained section samples which were used for staining were prepared as following manner; SHR/NDmcr-cp rats which were administered the desired amount of test compound TM-2002 (dose: 100 mg/1 kg body weight) by diet (30 g daily), the rats which were administered no drug and SHR (hypertension) rats and Wistar Kyoto rats (control); kidney tissues of each rat were obtained after the end of drug administration period (33 weeks aged); all of tissues were fixed by Carnoy and embedded in paraffin. The staining of each samples was carried out by Catalyzed Sifnal Amplification(CSA) System (DAKO) according to their protocol. […] The samples were observed by microscopic visualization with optical microscope (Olympus) and analyzed the result. […]

For `Cc1ncc2c(c1O)C(c1c(C)nn(-c3ccccc3)c1O)OC2` (stereo not shown) [compound 68, 1-(5-hydroxy-3-methyl-1-phenyl-1H-pyrazol-4-yl)-6-methyl-1,3-dihydro-furo[3,4-c]pyridin-7-ol], the “ORP150 positive staining site / ER stress in kidney” value was “decrease of positive staining site and suppressing ER stress”.

— patent US7645882B2, “Inhibitor of protein modification products formation” (priority 2003, dated 2010)
